Measurements as given in ChEMBL document CHEMBL1201862, “PubChem BioAssay data set” (2004).
Calls of active or inactive are those of the source. Unless noted, no cut-off for these calls is given here.

Experiments:
[1] = target: T1, Endoribonuclease toxin MazF (Escherichia coli K-12, UniProt P0AE70); test: activation of MazEF endoribonuclease cleavage – biochemical, fluorescence, single-stranded RNA substrate, uHTS hits, dose response (AID 588481); assay type: functional
T1 sequence (P0AE70 whole entry): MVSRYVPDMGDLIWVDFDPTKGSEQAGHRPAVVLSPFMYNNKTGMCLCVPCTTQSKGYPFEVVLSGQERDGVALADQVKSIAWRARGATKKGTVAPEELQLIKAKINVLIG

[2] = target: T1, Endoribonuclease toxin MazF; test: substrate-only fluorescence increase artefacts – biochemical, single-stranded RNase substrate, counter-screen for MazEF activator project, dose response (AID 588502); assay type: functional
Beta-lactamase [3] = target: Beta-lactamase (Pseudomonas aeruginosa, UniProt Q79MP6);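 note: biochemical dose-response test of metallo-beta-lactamase enzyme inhibition, read out by epi-absorbance; purified recombinant IMP-1 metallo-beta-lactamase with nitrocefin as substrate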
Beta-lactamase [4] = target: Beta-lactamase (Salmonella choleraesuis (strain SC-B67), UniProt Q5J463)
[5] = intracellular Trypanosoma cruzi inhibitors in host cells – cell-based, plate reader, cherry-pick samples, set 3, dose response (AID 651818); assay type: functional;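 note: compounds incubated with infected cells for about four days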
[6] = anti-trypanosomal activity in BESM host cells – imaging, CA-I/72 strain, bovine embryo skeletal muscle, dry powder, dose response (AID 651885); assay type: functional, cell-based
[7] = antileishmanial activity on axenic amastigotes – plate reader, cherry pick, dose response (AID 651891); assay type: functional, cell-based; settings: Leishmania donovani
[8] = L6 myocyte viability loss – cell-based, plate reader, cherry-pick, cytotoxicity control, dose response (AID 651896); assay type: functional
[9] = Inhibition of T. cruzi Tulahuen strain amastigotes in L-6 muscle cells Measured in Cell-Based and Microorganism Combination System Using Plate Reader - 2138-03_Inhibitor_Dose_CherryPick_Activity.; assay type: functional; settings: Rattus norvegicus, L6
[10] = African trypanosome bloodstream form growth inhibition – STIB900 strain, plate reader, cherry pick, dose response (AID 651893); assay type: functional, cell-based, Trypanosoma brucei rhodesiense; settings: Trypanosoma brucei
[11] = Inhibition of Plasmodium falciparum NF54 Measured in Cell-Based System Using Plate Reader - 2138-11_Inhibitor_Dose_CherryPick_Activity.; assay type: functional
[12] = target: T2, Sentrin-specific protease 1 (Homo sapiens, UniProt Q9P0U3); test: SENP1 catalytic domain blockers, concentration series – biochemical, kinetic FRET, dose response (AID 651697); assay type: functional; settings: read-out: IC50_Mean
[13] = target: T2, Sentrin-specific protease 1; test: Dose response confirmation of small molecule inhibitors of the catalytic domain of the SUMO protease, SENP1 in a FRET assay.; assay type: functional; settings: read-out: IC50_Mean

T2 sequence (Q9P0U3 whole entry, the tested form may be a part): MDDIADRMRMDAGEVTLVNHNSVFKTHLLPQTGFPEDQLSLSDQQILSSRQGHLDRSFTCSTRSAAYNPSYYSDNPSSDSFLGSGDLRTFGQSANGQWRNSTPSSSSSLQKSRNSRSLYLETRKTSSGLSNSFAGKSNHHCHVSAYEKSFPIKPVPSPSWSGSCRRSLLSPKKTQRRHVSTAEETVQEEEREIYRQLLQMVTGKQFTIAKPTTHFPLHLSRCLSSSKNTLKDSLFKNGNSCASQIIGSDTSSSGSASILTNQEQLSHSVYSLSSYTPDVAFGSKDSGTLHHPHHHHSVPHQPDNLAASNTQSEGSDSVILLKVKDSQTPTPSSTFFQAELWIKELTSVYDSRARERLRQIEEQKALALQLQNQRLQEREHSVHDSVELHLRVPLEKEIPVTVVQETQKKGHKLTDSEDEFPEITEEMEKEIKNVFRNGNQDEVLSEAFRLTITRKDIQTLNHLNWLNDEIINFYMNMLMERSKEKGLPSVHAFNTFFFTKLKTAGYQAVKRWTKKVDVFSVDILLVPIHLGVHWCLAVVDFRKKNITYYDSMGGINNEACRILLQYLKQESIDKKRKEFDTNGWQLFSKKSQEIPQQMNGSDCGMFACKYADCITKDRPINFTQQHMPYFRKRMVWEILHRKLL
Beta-lactamase (Salmonella choleraesuis (strain SC-B67), UniProt Q5J463), sequence (Q5J463 whole entry): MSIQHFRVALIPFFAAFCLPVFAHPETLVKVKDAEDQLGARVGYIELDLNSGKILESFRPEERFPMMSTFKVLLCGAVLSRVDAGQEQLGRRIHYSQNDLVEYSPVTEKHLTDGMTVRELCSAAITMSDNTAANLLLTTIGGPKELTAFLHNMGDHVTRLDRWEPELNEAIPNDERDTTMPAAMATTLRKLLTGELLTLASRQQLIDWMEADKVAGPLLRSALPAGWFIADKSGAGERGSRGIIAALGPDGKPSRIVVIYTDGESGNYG
Beta-lactamase (Pseudomonas aeruginosa, UniProt Q79MP6), sequence (Q79MP6 whole entry): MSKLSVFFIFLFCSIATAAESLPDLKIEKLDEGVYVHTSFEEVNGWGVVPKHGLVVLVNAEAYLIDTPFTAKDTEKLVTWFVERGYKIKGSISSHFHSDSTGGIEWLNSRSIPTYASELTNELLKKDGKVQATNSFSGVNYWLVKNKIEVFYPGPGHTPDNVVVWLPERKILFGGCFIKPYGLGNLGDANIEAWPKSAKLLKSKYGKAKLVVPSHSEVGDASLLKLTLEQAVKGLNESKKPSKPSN

CCOc1cc2c(cc1/C=C/c1noc(C)c1[N+](=O)[O-])OC(C)C2 (stereo not drawn)
EC50 [1]: > 99 µM (inactive)
EC50 [2]: > 99 µM (inactive)
IC50 (Beta-lactamase [3]): > 59.6 µM (inactive)
IC50 (Beta-lactamase [4]): > 59.6 µM (inactive)

C[C@@H]1CN([C@@H](C)CO)C(=O)c2cccc(NC(=O)c3ccncc3)c2O[C@H]1CN(C)Cc1ccccc1
AC50 [5]: 0.08 µM (active)
IC50 [6]: 10 µM (inconclusive)
IC50 [7]: > 100 µM (inactive)
IC50 [8]: > 100 µM (inactive)
IC50 [9]: 4.77 µM (inactive)
IC50 [10]: 5.33 µM (inactive)
IC50 [11]: 4.77 µM (inactive)

O=C1C=C(c2cccc(Cl)c2O)C[C@@H](c2ccc3c(c2)OCO3)C1
IC50 [12]: 1.93 µM (active)
IC50 [13]: 0.993 µM (active)
